Measurements: patent EP1144368B1, “ACETYLENIC ALPHA-AMINO ACID-BASED SULFONAMIDE HYDROXAMIC ACID TACE INHIBITORS” (priority 1999, dated 2000)
Structures can show the parent of a compound that is named as a salt. Where two headings read alike, the source gives them in different places.

Assays:
THP-1 cells = assay: THP-1 Soluble Protein Assay (LPS-stimulated; ELISA of TNF-a, TNF-R p75/80, TNF-R p55/60, IL-8); assay type: cell-based, human; details: for inhibition at 3 µM: Homo sapiens
MMP-13 = MMP-13 (Homo sapiens, UniProt P45452); assay: MMP-13 inhibition (thiopeptide or fluorescent peptide substrate); assay type: biochemical
MMP-1 = target: T1, MMP-1 (Homo sapiens, UniProt P03956); assay: MMP-1 inhibition (thiopeptide or fluorescent peptide substrate); assay type: biochemical
T1 sequence (P03956 100-469): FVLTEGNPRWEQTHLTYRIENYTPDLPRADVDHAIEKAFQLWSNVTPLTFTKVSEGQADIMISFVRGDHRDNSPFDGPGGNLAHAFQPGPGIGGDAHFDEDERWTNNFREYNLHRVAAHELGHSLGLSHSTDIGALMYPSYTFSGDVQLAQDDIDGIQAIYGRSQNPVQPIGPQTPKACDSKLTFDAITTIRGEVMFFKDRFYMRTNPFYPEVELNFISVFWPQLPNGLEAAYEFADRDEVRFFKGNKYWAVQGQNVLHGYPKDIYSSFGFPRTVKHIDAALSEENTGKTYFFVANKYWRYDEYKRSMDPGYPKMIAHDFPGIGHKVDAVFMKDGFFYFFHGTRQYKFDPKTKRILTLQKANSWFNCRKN

MMP-9 = MMP-9 (Homo sapiens, UniProt P14780); assay: MMP-9 inhibition (thiopeptide or fluorescent peptide substrate); assay type: biochemical
TACE = TACE (Homo sapiens, UniProt P78536); assay: TACE inhibition (fluorescent peptidyl substrate); assay type: biochemical; details: read-out: TACE IC50
[1] = THP-1, read-out: THP % inhibition @ 3 µM, 3 µM

Chain of TACE (P78536 215-824): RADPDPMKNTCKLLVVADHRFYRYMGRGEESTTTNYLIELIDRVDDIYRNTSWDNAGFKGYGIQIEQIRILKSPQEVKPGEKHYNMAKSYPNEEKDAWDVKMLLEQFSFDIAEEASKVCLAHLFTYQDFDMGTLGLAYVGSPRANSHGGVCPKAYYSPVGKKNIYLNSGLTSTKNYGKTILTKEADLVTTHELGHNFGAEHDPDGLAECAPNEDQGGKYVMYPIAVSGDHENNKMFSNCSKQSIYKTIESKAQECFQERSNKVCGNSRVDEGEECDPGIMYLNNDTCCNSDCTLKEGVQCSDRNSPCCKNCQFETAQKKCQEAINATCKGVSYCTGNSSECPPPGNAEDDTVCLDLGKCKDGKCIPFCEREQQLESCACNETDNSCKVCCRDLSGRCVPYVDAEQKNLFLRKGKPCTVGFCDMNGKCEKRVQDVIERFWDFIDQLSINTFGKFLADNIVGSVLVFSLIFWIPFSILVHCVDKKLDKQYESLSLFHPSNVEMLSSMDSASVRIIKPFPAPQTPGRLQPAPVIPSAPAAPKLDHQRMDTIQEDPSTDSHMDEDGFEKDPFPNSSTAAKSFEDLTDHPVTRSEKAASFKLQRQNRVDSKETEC
Chain of MMP-9 (P14780 107-707 limits assumed): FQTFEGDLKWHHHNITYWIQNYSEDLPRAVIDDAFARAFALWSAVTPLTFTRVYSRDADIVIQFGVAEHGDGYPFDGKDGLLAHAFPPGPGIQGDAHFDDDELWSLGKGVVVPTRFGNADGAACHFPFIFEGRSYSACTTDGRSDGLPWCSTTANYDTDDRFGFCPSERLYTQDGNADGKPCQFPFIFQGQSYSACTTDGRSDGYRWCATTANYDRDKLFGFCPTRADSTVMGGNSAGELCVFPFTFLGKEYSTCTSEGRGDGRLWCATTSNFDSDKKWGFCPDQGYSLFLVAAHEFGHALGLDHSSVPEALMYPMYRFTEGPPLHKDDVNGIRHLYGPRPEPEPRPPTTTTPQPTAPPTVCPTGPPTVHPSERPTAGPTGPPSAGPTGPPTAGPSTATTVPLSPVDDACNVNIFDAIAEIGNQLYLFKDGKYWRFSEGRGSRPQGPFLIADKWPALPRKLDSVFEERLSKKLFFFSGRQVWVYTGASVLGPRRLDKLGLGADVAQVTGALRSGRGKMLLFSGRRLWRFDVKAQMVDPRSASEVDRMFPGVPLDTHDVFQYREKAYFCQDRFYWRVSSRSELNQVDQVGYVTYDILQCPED

Compound	IC50 (MMP-13)	IC50 (MMP-1)	IC50 (MMP-9)	IC50 (TACE)	IC50 (TACE; Tables 11-14)	THP % inhibition @ 3 µM (THP-1 cells)	inhibition at 3 µM (THP-1 cells; THP-1, read-out: THP % inhibition @ 3 µM)	inhibition at 3 µM (THP-1 cells; [1])	inhibition at 3 µM (THP-1 cells; THP-1, 3 µM, read-out: THP % Inhibition @ 3µM)
CC#CCOc1ccc(S(=O)(=O)N(CC(=O)NO)Cc2cccnc2)cc1 [Example 23, 2-[(4-But-2-ynyloxy-benzenesulfonyl)-pyridin-3-ylmethyl-amino]-N-hydroxy-acetamide hydrochloride]	20 nM	1160 nM	40 nM	–	–	–	63%	–	–
CC#CCOc1ccc(S(=O)(=O)N(C)[C@@H](C)C(=O)NO)cc1 [Example 107, (2S)-2-[(4-But-2-ynyloxy-benzenesulfonyl)-methyl-amino]-N-hydroxy-propionamide]	–	330 nM	68 nM	4.5 nM	–	–	–	–	–
CC#CCOc1ccc(S(=O)(=O)N(CC#CCN(CC)CC)C(C(=O)NO)C(C)C)cc1 (stereo not drawn) [Example 126, 2-{{[4-(2-Butynyloxy)phenyl]sulfonyl}[4-(diethylamino)-2-butynyl]amino}-N-hydroxy-3-methylbutanamide]	36 nM	212 nM	149 nM	73 nM	–	–	–	93%	–
CN(CC(=O)NO)S(=O)(=O)c1ccc(OCC#Cc2ccc(Cl)cc2)cc1 [Example 132, 2-[[(4-{[3-(4-Chlorophenyl)-2-propynyl]oxy}phenyl)sulfonyl](methyl)amino]-N-hydroxyacetamide]	1120 nM	> 10000 nM	2370 nM	1100 nM	–	–	–	27%	–
C#CCNc1ccc(S(=O)(=O)N(C)CC(=O)NO)cc1 [Example 133, N-Hydroxy-2-(methyl{[4-(prop-2-ynylamino)phenyl]sulfonyl}amino)acetamide]	751 nM	–	1510 nM	120 nM	–	–	–	8%	–
CC#CCSc1ccc(S(=O)(=O)N(C)CC(=O)NO)cc1 [Example 134, 2-[(4-But-2-ynylthiophenylsulfonyl)methylamino]-N-hydroxyacetamide]	84 nM	4950 nM	111 nM	–	–	–	–	14%	–
CC#CCOc1ccc(S(=O)(=O)N(C)C(CSCc2cccnc2)C(=O)NO)cc1 (stereo not drawn) [Example 155, 2-[(4-But-2-ynyloxy-benenesulfonyl)-methyl-amino]-N-hydroxy-3-(pyridin-3-ylmethylsulfanyl)-butyramide]	–	–	14 nM	–	–	–	–	93%	–

More lines, main results first:

IC50 (MMP-13)	IC50 (MMP-1)	IC50 (MMP-9)	IC50 (TACE)	IC50 (TACE; Tables 11-14)	Compound	THP % inhibition @ 3 µM (THP-1 cells)	inhibition at 3 µM (THP-1 cells; THP-1, read-out: THP % inhibition @ 3 µM)	inhibition at 3 µM (THP-1 cells; [1])	inhibition at 3 µM (THP-1 cells; THP-1, 3 µM, read-out: THP % Inhibition @ 3µM)
9.3 nM	25 nM	20 nM	51 nM	–	2-[(4-But-2-ynyloxy-benenesulfonyl)-methyl-amino]-N-hydroxy-3-methyl-3-ethylsulfanyl-butyramide [Example 150]	86%	–	–	–
2.5 nM	18 nM	7.1 nM	109 nM	–	CC#CCOc1ccc(S(=O)(=O)N(C)C(C(=O)NO)C(C)(C)SCCN2CCCC2C(=O)OC)cc1 (stereo not drawn) [Example 145]	–	–	83%	–
5.2 nM	25 nM	4.8 nM	88 nM	–	CC#CCOc1ccc(S(=O)(=O)N(C)C(C(=O)NO)C(C)(C)SCCCN(CC)CC)cc1 (stereo not drawn) [Example 148]	–	–	87%	–
4.5 nM	–	11 nM	4.8 nM	–	CC#CCOc1ccc(S(=O)(=O)N(C)C(CSCc2ccccc2)C(=O)NO)cc1 (stereo not drawn) [Example 156, 3-(Benzylthio) -2-[[[4-(2-butynyloxy)phenyl]sulfonyl]methylamino] -N-hydroxypropanamide]	–	–	75%	–
–	–	107 nM	–	59 nM	CC#CCOc1ccc(S(=O)(=O)N2CC(CNC(=O)OC(C)(C)C)SC(C)(C)C2C(=O)NO)cc1 [Example 274, tert-Butyl{(2S,5S)-4-{[4-(2-butynyloxy)phenyl]sulfonyl}-5-[(hydroxyamino)carbonyl]-6,6-dimethylthiomorpholinyl}methylcarbamate]	84%	–	–	–
–	–	64 nM	–	–	CC#CCOc1ccc(S(=O)(=O)N2C[C@H](CN)SC(C)(C)[C@@H]2C(=O)NO)cc1 [Example 276, (3S,6S)-Cis-6-(aminomethyl)-4-{[4-(2-butynyloxy)phenyl]sulfonyl}-N-hydroxy-2,2-dimethyl-3-thiomorpholinecarboxamide hydrochloride]	–	–	–	94%
